Measurements reported in paper PMC10436550, “Subacute toxicity evaluations of LPM3480392 in rats, a full µ-opioid receptor biased agonist” (Frontiers in Pharmacology, 2023).

Tested on: Sprague Dawley (SD) rats
Assay: Organ weight and ratios, 4-week subacute toxicity study
Format: in vivo, rat
Description: Complete gross necropsies were conducted on all surviving animals at the end of treatment (the day after the last dosing) and recovery periods. The following selected organs were weighed and evaluated in terms of organ/body or organ/brain weight ratios: brain, kidneys, adrenals, testes, ovaries, uterus, epididymides, thymus, spleen, heart and liver. Paired organs were weighed together. Organ-to-body weight ratio = Organ weight(g)/Body weight(g) × 100%, and Organ-to-brain weight ratio = Organ weight(g)/Brain weight(g) × 100%.

[1] = female rats, 0.6 mg/kg/day, End of dosing phase
[2] = female rats, 0.6 mg/kg/day, End of recovery phase
[3] = female rats, 1.2 mg/kg/day, End of dosing phase
[4] = female rats, 1.2 mg/kg/day, End of recovery phase
[5] = female rats, 2.4 mg/kg/day, End of dosing phase
[6] = female rats, 2.4 mg/kg/day, End of recovery phase
[7] = male rats, 0.6 mg/kg/day, End of dosing phase
[8] = male rats, 0.6 mg/kg/day, End of recovery phase

Fc1ccc([C@]2(CCNCc3cccc(Cl)c3)CCO[C@]3(CCOC3)C2)nc1 [LPM3480392]
Organ weight, Brain [1]: 1.862 ± 0.102 g
Organ weight, Kidney [1]: 1.501 ± 0.123 g
Organ weight, Spleen [1]: 0.646 ± 0.159 g
Organ weight, Thymus [1]: 0.402 ± 0.053 g
Organ-to-body weight ratio, Brain [1]: 0.875 ± 0.063 %
Organ-to-body weight ratio, Kidney [1]: 0.704 ± 0.037%
Organ-to-body weight ratio, Spleen [1]: 0.301 ± 0.065%
Organ-to-body weight ratio, Thymus [1]: 0.189 ± 0.028%
Organ-to-brain weight ratio, Adrenal gland [1]: 3.21 ± 0.59%
Organ-to-brain weight ratio, Kidney [1]: 80.71 ± 6.29%
Organ-to-brain weight ratio, Spleen [1]: 34.73 ± 8.54%
Organ-to-brain weight ratio, Thymus [1]: 21.61 ± 3.02%
Terminal BW [1]: 213.5 ± 15.3 g
Organ weight, Brain [2]: 2.018 ± 0.046 g
Organ weight, Kidney [2]: 1.626 ± 0.142 g
Organ weight, Spleen [2]: 0.530 ± 0.085 g
Organ weight, Thymus [2]: 0.308 ± 0.055 g
Organ-to-body weight ratio, Brain [2]: 0.804 ± 0.031%
Organ-to-body weight ratio, Kidney [2]: 0.647 ± 0.043%
Organ-to-body weight ratio, Spleen [2]: 0.210 ± 0.030%
Organ-to-body weight ratio, Thymus [2]: 0.122 ± 0.019%
Organ-to-brain weight ratio, Adrenal gland [2]: 2.91 ± 0.20%
Organ-to-brain weight ratio, Kidney [2]: 80.51 ± 6.21%
Organ-to-brain weight ratio, Spleen [2]: 26.23 ± 4.03%
Organ-to-brain weight ratio, Thymus [2]: 15.21 ± 2.43%
Terminal BW [2]: 251.2 ± 9.7 g
Organ weight, Brain [3]: 1.916 ± 0.096 g
Organ weight, Kidney [3]: 1.518 ± 0.127 g
Organ weight, Spleen [3]: 0.637 ± 0.078 g
Organ weight, Thymus [3]: 0.380 ± 0.046 g
Organ-to-body weight ratio, Brain [3]: 0.881 ± 0.039 %
Organ-to-body weight ratio, Kidney [3]: 0.697 ± 0.044%
Organ-to-body weight ratio, Spleen [3]: 0.294 ± 0.042%
Organ-to-body weight ratio, Thymus [3]: 0.175 ± 0.026%
Organ-to-brain weight ratio, Adrenal gland [3]: 2.89 ± 0.37%
Organ-to-brain weight ratio, Kidney [3]: 79.14 ± 3.61%
Organ-to-brain weight ratio, Spleen [3]: 33.29 ± 3.96%
Organ-to-brain weight ratio, Thymus [3]: 19.90 ± 2.88%
Terminal BW [3]: 217.8 ± 15.0 g
Organ weight, Brain [4]: 1.990 ± 0.086 g
Organ weight, Kidney [4]: 1.567 ± 0.165 g
Organ weight, Spleen [4]: 0.574 ± 0.056 g
Organ weight, Thymus [4]: 0.297 ± 0.056 g
Organ-to-body weight ratio, Brain [4]: 0.802 ± 0.031%
Organ-to-body weight ratio, Kidney [4]: 0.630 ± 0.037%
Organ-to-body weight ratio, Spleen [4]: 0.231 ± 0.016%
Organ-to-body weight ratio, Thymus [4]: 0.120 ± 0.023%
Organ-to-brain weight ratio, Adrenal gland [4]: 2.68 ± 0.38%
Organ-to-brain weight ratio, Kidney [4]: 78.65 ± 6.18%
Organ-to-brain weight ratio, Spleen [4]: 28.83 ± 2.34%
Organ-to-brain weight ratio, Thymus [4]: 14.89 ± 2.48%
Terminal BW [4]: 248.4 ± 12.5 g
Organ weight, Brain [5]: 1.958 ± 0.105 g
Organ weight, Kidney [5]: 1.549 ± 0.122 g
Organ weight, Spleen [5]: 0.616 ± 0.144 g
Organ weight, Thymus [5]: 0.339 ± 0.075 g
Organ-to-body weight ratio, Brain [5]: 0.943 ± 0.055%
Organ-to-body weight ratio, Kidney [5]: 0.746 ± 0.049%
Organ-to-body weight ratio, Spleen [5]: 0.294 ± 0.049%
Organ-to-body weight ratio, Thymus [5]: 0.162 ± 0.031%
Organ-to-brain weight ratio, Adrenal gland [5]: 2.88 ± 0.24%
Organ-to-brain weight ratio, Kidney [5]: 79.23 ± 6.43%
Organ-to-brain weight ratio, Spleen [5]: 31.37 ± 6.57%
Organ-to-brain weight ratio, Thymus [5]: 17.23 ± 3.33%
Terminal BW [5]: 208.0 ± 14.6 g
Organ weight, Brain [6]: 2.075 ± 0.093 g
Organ weight, Kidney [6]: 1.554 ± 0.133 g
Organ weight, Spleen [6]: 0.502 ± 0.064 g
Organ weight, Thymus [6]: 0.331 ± 0.135 g
Organ-to-body weight ratio, Brain [6]: 0.856 ± 0.093%
Organ-to-body weight ratio, Kidney [6]: 0.637 ± 0.024%
Organ-to-body weight ratio, Spleen [6]: 0.206 ± 0.027%
Organ-to-body weight ratio, Thymus [6]: 0.135 ± 0.047%
Organ-to-brain weight ratio, Adrenal gland [6]: 2.71 ± 0.42%
Organ-to-brain weight ratio, Kidney [6]: 75.09 ± 8.25%
Organ-to-brain weight ratio, Spleen [6]: 24.11 ± 2.01%
Organ-to-brain weight ratio, Thymus [6]: 16.14 ± 7.16%
Terminal BW [6]: 244.2 ± 24.2 g
Organ weight, Adrenal gland [7]: 0.052 ± 0.011 g
Organ weight, Brain [7]: 2.094 ± 0.050 g
Organ weight, Epididymis [7]: 0.977 ± 0.089 g
Organ weight, Heart [7]: 1.289 ± 0.102 g
Organ weight, Liver [7]: 8.125 ± 0.587 g
Organ weight, Spleen [7]: 0.741 ± 0.128 g
Organ weight, Thymus [7]: 0.477 ± 0.062 g
Organ-to-body weight ratio, Adrenal gland [7]: 0.016 ± 0.003%
Organ-to-body weight ratio, Brain [7]: 0.650 ± 0.035%
Organ-to-body weight ratio, Epididymis [7]: 0.303 ± 0.028%
Organ-to-body weight ratio, Heart [7]: 0.399 ± 0.028 %
Organ-to-body weight ratio, Liver [7]: 2.516 ± 0.108%
Organ-to-body weight ratio, Spleen [7]: 0.229 ± 0.030%
Organ-to-body weight ratio, Thymus [7]: 0.147 ± 0.016%
Organ-to-brain weight ratio, Adrenal gland [7]: 2.50 ± 0.58%
Organ-to-brain weight ratio, Epididymis [7]: 46.67 ± 4.12%
Organ-to-brain weight ratio, Heart [7]: 61.61 ± 5.76%
Organ-to-brain weight ratio, Liver [7]: 388.28 ± 30.51%
Organ-to-brain weight ratio, Spleen [7]: 35.42 ± 6.22%
Organ-to-brain weight ratio, Thymus [7]: 22.74 ± 2.77%
Terminal BW [7]: 322.9 ± 16.9 g
Organ weight, Adrenal gland [8]: 0.057 ± 0.008 g
Organ weight, Brain [8]: 2.262 ± 0.071 g
Organ weight, Epididymis [8]: 1.432 ± 0.140 g
